Peptide text beside a SMILES is read from it. * marks the point of attachment. pNA = O=[N+]([O-])c1ccc(N*)cc1
Key:
[1] = system: thrombin generation in tissue factor triggered plasma; test: Manual determination of thrombin generation in plasma (subsampling method) and calculated prothrombinase activity; assay type: biochemical, human
Experimental: Manual determination of thrombin generation in plasma: Extrinsic pathway: To 480 μL defibrinated plasma were added: 172 μL buffer A which contains the substrate at concentrations between 0 to 2000 μM and 20 μL of a 54 μM phospholipid solution (final concentration: 1.5 μM). After incubation of 4 min at 37° C., 24 μL tissue factor (undiluted) was added. Thrombin formation started at zero time by adding 24 μL of a 0.5 M CaCl2 solution (final concentration: 16.67 mM). At regular time intervals of 12 s samples of 10 μL were subsampled as described above. From the amidolytic activities thus obtained, the thrombin generation curve can be drawn. […] Intrinsic pathway: To 480 μL defibrinated plasma were added: 168 μL buffer A which contains the substrate at concentrations between 0 to 1000 μM and 48 μL Actin FS (undiluted). This mixture was intensively mixed and incubated for 4 min at 37° C. Thrombin generation was started at zero time by adding 24 μL of a 0.5 M CaCl2 solution (final concentration: 16.67 mM).
Influence of the substrate on the prothrombinase-complex: With the obtained decay constants and from the curves obtained by the subsampling method we calculated the course of prothrombin conversion and the course of prothrombinase concentration.
Manual determination of thrombin generation in plasma: Extrinsic pathway: To 480 μL defibrinated plasma were added: 172 μL buffer A which contained the substrate at concentrations between 0 to 2000 μM and 20 μL of a 54 μM phospholipid solution (final concentration: 1.5 μM). After incubation for 4 min at 37° C., 24 μL tissue factor (undiluted) was added. Thrombin formation started at zero time by adding 24 μL of a 0.5 M CaCl2 solution (final concentration: 16.67 mM). At regular time intervals of 12 s samples of 10 μL were subsampled as described above. From the amidolytic activities thus obtained, the thrombin generation curve can be drawn.
Influence of the substrate on the prothrombinase-compzex: With the obtained decay constants and from the curves obtained by the subsampling method we calculated the course of prothrombin conversion and the course of prothrombinase concentration.

human α-thrombin = target: T1, human α-thrombin (Homo sapiens, UniProt P00734); test: Kinetics of hydrolysis of substrates by human α-thrombin in buffer A at 37° C. (Example 2, Table 1); assay type: biochemical
T1 construct: Pure human α-thrombin; gift of Dr. T. Lindhout (University of Limburg, Maastricht)
Outline: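 p-Nitroaniline release was followed at 405 nm (dual wavelength 405-546 nm) in buffer A at 37° C, with substrate at 1 to 2000 μM (at least six levels) preincubated 5 min before enzyme at 0.5 to 100 nM. Km and kcat came from initial velocities fitted to Michaelis-Menten by linear regression, from one or two experiments.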

k2,M : k2 determined by the subsampling method ([1]; [S] 200 μM in plasma): 0.234 min⁻¹
k2,M : k2 determined by the subsampling method ([1]; [S] 500 μM in plasma): 0.207 min⁻¹
k2,M : k2 determined by the subsampling method ([1]; [S] 1000 μM in plasma): 0.199 min⁻¹
influence on the prothrombinase complex / coagulation cascade ([1]; calculated from decay constants and manual thrombin generation curves): clearly decreases its concentration
Km (human α-thrombin): 1240 µM
kcat (human α-thrombin): 0.23 s⁻¹
kcat /Km (human α-thrombin): 186 M/s
Compound: CC(C)[C@H](N)C(=O)N[C@@H](CCCNC(=N)N)C(=O)Nc1ccc([N+](=O)[O-])cc1.Cl.Cl [2HCl.H-Val-Arg-pNA] (H-Val-Arg-pNA)

— patent publication US6207399A, “Methods of determining endogenous thrombin potential (ETP) and thrombin substrates for use in said methods” (Hemker; Hendrik Coenraad, priority 1995, dated 2001)
